Assay results reported in the supplement of paper PMC10307832.

Experiments:
Assay in all cases: relative viability (nuclei count vs DMSO), 5 days (fraction); higher = more cells survive
Midostaurin = compound: CO[C@@H]1[C@H](N(C)C(=O)c2ccccc2)C[C@H]2O[C@]1(C)n1c3ccccc3c3c4c(c5c6ccccc6n2c5c31)C(=O)NC4 [Midostaurin]
How it was run: (§1)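 Only plates meeting two conditions passed: control CV below 25% and at least one doubling. Lung cancer cell lines, kept overnight at 37 °C in 1536-well plates, were pinned with five library-drug doses (not always all listed) √10 apart on vehicle-anchored plates and grown 5 days without medium change. A one-step fix, permeabilisation and Hoechst stain preceded 4× imaging and MetaXpress nuclear counting. Viability equals treated-well nuclei divided by vehicle-well nuclei, as the median over plates.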

[1] = compound: COc1cc(-c2nn([C@H]3CC[C@H](N4CCN(C(C)=O)CC4)CC3)c3ncnc(N)c23)ccc1NC(=O)c1cc2ccccc2n1C
How it was run: as §1

[2] = compound: COc1cc(-c2nn([C@H]3CC[C@H](N4CCN(C(C)=O)CC4)CC3)c3ncnc(N)c23)ccc1NC(=O)c1cc2ccccc2n1C + Cc1nc(Nc2ncc(C(=O)Nc3c(C)cccc3Cl)s2)cc(N2CCN(CCO)CC2)n1 [Dasatinib] (partner 0.075 µM)
How it was run: (§2)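 Nuclei were stained with Hoechst during a one-step fixation (final 0.05% Triton X-100, 1% formaldehyde, 1 ug/ml Hoechst) carried out 5 days after dosing, then counted on 4× images. The cells, lung cancer lines in 1536-well plates, had been dosed by pin tool the day after seeding with one drug alone or a fixed anchor-drug dose plus five library-drug doses (not always all listed) in √10 steps. Relative viability is the nuclei count in treated wells divided by that in vehicle wells, and each value is the median of duplicate plates.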

Midostaurin + Alpelisib = compound: CO[C@@H]1[C@H](N(C)C(=O)c2ccccc2)C[C@H]2O[C@]1(C)n1c3ccccc3c3c4c(c5c6ccccc6n2c5c31)C(=O)NC4 [Midostaurin] + Cc1nc(NC(=O)N2CCC[C@H]2C(N)=O)sc1-c1ccnc(C(C)(C)C(F)(F)F)c1 [Alpelisib] (partner 2 µM)
How it was run: as §2

[3] = compound: COc1cc(-c2nn([C@H]3CC[C@H](N4CCN(C(C)=O)CC4)CC3)c3ncnc(N)c23)ccc1NC(=O)c1cc2ccccc2n1C + Nc1nc2[nH]cc(CCc3ccc(C(=O)N[C@@H](CCC(=O)O)C(=O)O)cc3)c2c(=O)[nH]1 [Pemetrexed] (partner 0.2 µM)
How it was run: as §2

Cell Line	relative viability (Midostaurin; 0.01 µM)	relative viability (Midostaurin; 0.03162 µM)	relative viability (Midostaurin; 0.1 µM)	relative viability (Midostaurin; 0.3162 µM)	relative viability ([1]; 0.0128 µM)	relative viability ([1]; 0.04048 µM)	relative viability ([1]; 0.128 µM)	relative viability ([1]; 1.28 µM)	relative viability ([2]; first compound 0.0128 µM)	relative viability ([2]; first compound 0.04048 µM)	relative viability ([2]; first compound 0.128 µM)	relative viability ([2]; first compound 1.28 µM)	relative viability (Midostaurin + Alpelisib; first compound 0.01 µM)	relative viability (Midostaurin + Alpelisib; first compound 0.03162 µM)	relative viability (Midostaurin + Alpelisib; first compound 0.1 µM)	relative viability (Midostaurin + Alpelisib; first compound 0.3162 µM)	relative viability ([3]; first compound 0.0128 µM)	relative viability ([3]; first compound 0.04048 µM)	relative viability ([3]; first compound 0.128 µM)	relative viability ([3]; first compound 1.28 µM)
LK-2	0.998	1.04	0.947	1	1	0.949	0.943	0.794	0.312	0.264	0.326	0.417	1.09	1.48	1.11	1.05	0.298	0.248	0.27	0.133
LOU-NH91	1.02	0.89	0.967	1	0.985	1.04	0.978	0.853	0.557	0.545	0.531	0.54	0.776	0.673	0.724	0.756	0.395	0.348	0.363	0.433
LU99A	0.881	1.14	0.887	0.939	1.03	0.84	0.998	0.982	0.541	0.541	0.634	0.556	0.437	0.457	0.396	0.387	0.162	0.225	0.169	0.252
LXF-289	1.03	1.01	0.973	1.03	1.11	0.989	1.01	1.06	0.291	0.314	0.237	0.227	0.997	1.02	0.952	0.976	1.01	0.881	0.901	1.16
NCI-H23	1.05	0.962	0.791	0.562	0.951	0.726	0.901	0.946	0.736	0.469	0.778	0.741	0.739	0.517	0.339	0.602	0.66	0.459	0.688	0.618
NCI-H322M	1	0.852	1.06	1.34	0.995	0.897	0.909	0.69	0.262	0.256	0.234	0.253	0.836	0.686	0.882	0.807	0.603	0.643	0.604	0.538
NCI-H358	0.949	0.93	1.08	0.85	0.889	0.703	0.702	0.335	0.188	0.138	0.151	0.163	0.891	0.719	0.954	0.768	0.188	0.187	0.173	0.166
NCI-H441	0.954	1.03	0.874	0.902	1.03	0.976	0.922	0.84	0.628	0.463	0.657	0.536	0.817	0.669	0.536	0.736	0.275	0.306	0.254	0.295
NCI-H460	1.04	1.01	0.997	1.01	0.977	0.983	0.907	0.989	0.526	0.386	0.475	0.507	0.47	0.433	0.371	0.365	0.0604	0.0561	0.0601	0.0597
NCI-H520	0.914	0.96	1.07	0.863	0.79	0.959	0.836	0.778	0.211	0.273	0.236	0.307	0.891	0.882	0.845	0.981	0.637	0.732	0.603	0.409
NCI-H596	0.946	1.01	1.15	1.17	1.03	0.95	0.833	0.836	0.564	0.73	0.573	0.559	0.587	0.546	0.508	0.432	0.494	0.536	0.517	0.431
NCI-H647	0.919	0.88	0.962	0.884	1.09	0.961	0.88	0.623	0.155	0.227	0.164	0.203	0.948	1.15	0.861	0.672	0.19	0.154	0.172	0.164
NCI-H650	0.779	0.844	0.922	0.858	1.13	1.25	0.911	1.01	0.475	0.592	0.462	0.456	1.04	1.07	1.11	0.63	1.09	1.05	1.02	0.897
NCI-H661	0.963	0.869	0.991	1.11	1.02	1.07	1	0.779	0.923	0.765	0.829	0.94	0.684	0.601	0.758	0.661	0.939	0.991	0.93	0.968
NCI-H838	1	0.927	0.801	0.667	0.953	0.995	0.899	0.728	0.304	0.261	0.276	0.342	1.02	0.772	0.865	0.407	0.254	0.262	0.224	0.221
